Results on one molecule are retold here after patent US20170328922A1, “METHODS AND PRODUCTS FOR LABELLING LIPIDS” (UNIVERSITY OF SOUTH AUSTRALIA, priority 2014, published 2017).

What all share (type): binding
Assay [1] can be described thus: Rhenium molecular probe-lipid overlay (dot blot). Also noted: key to interaction with Lysophosphatidic acid (dot blot): ✓ indicates a positive interaction; x indicates no interaction. The procedure: (§1) The experimental protocol probe-lipid overlay was as follows: 50 μM of each lipids was loaded on to PVDF membranes (Perkin Elmer, USA), which were then incubated with molecular probes. PhenCyano and PhenPyridyl were assessed against eleven lipids including; sphingomyelin (Cat # S0756, Sigma Aldrich, USA), sphingosine (Cat # S7049; Sigma Aldrich, USA), L-phosphatidylethanolamine (Cat # P7943, Sigma Aldrich, USA), monosialodanglioside (GM1; Cat # G7641, Sigma Aldrich, USA), oleoly-L-?-lysophosphatidic acid (Cat # L7260, Sigma Aldrich, USA), palmitic acid (Cat # P5917, Sigma Aldrich, USA), sphingomyelin (Cat # S0756, Sigma Aldrich, USA), sphingosine (Cat # S7049; Sigma Aldrich, USA), L-?-phosphatidylethanolamine (Cat # P7943, Sigma Aldrich, USA), monosialodanglioside (GM1; Cat # G7641, Sigma Aldrich, USA), progesterone (Cat #102722, MP Biomedical, USA), ceramide (Cat # C2137; Sigma Aldrich, USA), triacylglycerol mix C2-C10 (Cat #17810, Sigma Aldrich, USA) and cholesteryl acetate (Cat #151114; Sigma Aldrich, USA).
(§2) Lipids were dissolved in ethanol, methanol or isopropanol for loading depending on solubility. Following lipid loading, membranes were left to dry for 20-30 minutes, then they were washed for 10 minutes in cold 10% ethanol, before they were incubated with 10 μM solution of each Rhenium molecular probe in cold 10% ethanol for one hour. Membranes were than washed four times for 10 minutes in cold 10% ethanol prior to imaging. Imaging was performed on an Image Quant Las 4000 (GE, Sweden) luminescent image analyser, with the Rhenium molecular probe being detected by excitation at 460 nm using an epi-blue light source, and detected using an 575 nm ethidium bromide filter.

Assay [2] is described as follows: Rhenium molecular probe-lipid overlay (dot blot). Also noted: key to interaction with Sphingosine (dot blot): ✓ indicates a positive interaction; x indicates no interaction. The procedure:
as §1
(§3) All other molecular probes were assessed against a panel of six lipids including; sphingomyelin (Cat # S0756, Sigma Aldrich, USA), sphingosine (Cat # S7049; Sigma Aldrich, USA), L-?-phosphatidylethanolamine (Cat # P7943, Sigma Aldrich, USA), monosialodanglioside (GM1; Cat # G7641, Sigma Aldrich, USA), sphingomyelin (Cat # S0756, Sigma Aldrich, USA), sphingosine (Cat # S7049; Sigma Aldrich, USA), L-?-phosphatidylethanolamine (Cat # P7943, Sigma Aldrich, USA), monosialodanglioside (GM1; Cat # G7641, Sigma Aldrich, USA) and triacylglycerol mix C2-C10 (Cat #17810, Sigma Aldrich, USA).
as §2

A short description of assay [3]: Rhenium probe-lipid overlay, Example 5. The procedure:
To determine the binding properties of tricarbonyl-(4-cyanophenyltretrazolato)-phenanthroline-rhenium (I) (Rhenium probe) to various lipids, Rhenium probe-lipid overlay was performed using either lipids spotted onto PDVF membranes (Perkin Elmer, USA) or lipid MicroStrips (Echelon Biosciences Inc., Salt Lake City, Utah). The membranes contained at least 100 pmoles of each lipid in individual spots (supplementary table 1) or 10 μL (each in PBS) of 10% (v/v) glycerol, 1% (v/v) CHAPS, 1% (w/v) SDS, 1% (v/v) Tween20, Ecydsone (10 μg/100 μL), cholesterol (10 μg/100 μL), progesterone (10 μg/100 μL), PBS, or 1% (v/v) ethanol; and were incubated with 0.5 mM of Rhenium probe in 1% (w/v) BSA/PBS for 40 minutes and then washed four times for 10 minutes in PBS. Imaging was performed on an Image Quant Las 4000 (GE, Sweden) luminescent image analyser, with the Rhenium probe being detected by excitation at 460 nm using an epi-blue light source, and detected using an 605 nm ethidium bromide filter.

Assay [4] can be described thus: Rhenium molecular probe-lipid overlay (dot blot). Also noted: key to interaction with Progesterone (dot blot): ✓ indicates a positive interaction; x indicates no interaction. The procedure: as §1, §2
Assay [5] is described as follows: Rhenium molecular probe-lipid overlay (dot blot). On the set-up: key to interaction with PE (dot blot): ✓ indicates a positive interaction; x indicates no interaction. The procedure: as §1, §3, §2
Assay [6] can be described thus: Rhenium molecular probe-lipid overlay (dot blot). On the set-up: key to interaction with Sphingomyline (dot blot): ✓ indicates a positive interaction; x indicates no interaction. The procedure: as §1, §3, §2
Assay [7] can be described thus: Rhenium molecular probe-lipid overlay (dot blot). Also noted: key to interaction with GM1 (dot blot): ✓ indicates a positive interaction; x indicates no interaction. The procedure:
as §1, §3, §2

A short description of assay [8]: Rhenium molecular probe-lipid overlay (dot blot). On the set-up: key to interaction with Cholestrol (dot blot): ✓ indicates a positive interaction; x indicates no interaction. Here is the method: as §1, §3, §2
[9] abbreviates: 10 μM probe, 50 μM lipid on PVDF membrane.
Setting [10] is: 0.5 mM probe in 1% BSA/PBS, FIG. 6.

The structures appear in SMILES notation.

Turning to `N#Cc1ccc(-c2nn[n]([Re](=[C]=O)(=[C]=O)=[C]=O)n2)cc1.c1cnc2c(c1)ccc1cccnc12` [PhenCyano, Triscarbonyl phenanthroline (4-cyanophenyltetrazolato)Rhenium(I)], the “interaction with Lysophosphatidic acid (dot blot)” value in assay [1] (setting [9]) is listed as “✓”. Further, the “affinity towards lysophosphatidic acid, in words” value in assay [1] (FIG. 7) is reported as “some affinity”. Moreover, the “interaction with Sphingosine (dot blot)” value in assay [2] (setting [9]) is reported as “✓”. In addition, the “affinity towards sphingosine, in words” value in assay [2] (FIG. 7 / FIG. 8) was “some affinity”. For the same molecule, in assay [3] (0.5 mM probe in 1% BSA/PBS), the “reactivity with long chain fatty acids” value is given as “did not react” and the “reactivity with neutral lipids” value is on record as “did not react”. Moreover, in assay [3] (setting [10]), the interaction with cholesterol entry is on record as “interacted”, the interaction with ecdysone entry was “interacted”, the interaction with progesterone result is given as “interacted” and the “reactivity with CHAPS” value was “high level of reactivity”. In addition, the reactivity with deoxycholate entry in assay [3] (setting [10]) was “high level of reactivity”. For the same molecule, the “reactivity with SDS” value in assay [3] (auto-reactivity of SDS alone at 575-605 nm on membrane) is listed as “some residual background reactivity”. Moreover, the “reactivity with Tween® 20” value in assay [3] (auto-reactivity of Tween 20 alone at 575-605 nm on membrane) was “some residual background reactivity”. The “interaction with Progesterone (dot blot)” value in assay [4] (setting [9]) was “✓”. Also, the “affinity towards progesterone, in words” value in assay [4] (FIG. 7) was “some affinity”. The “interaction with PE (dot blot)” value in assay [5] (setting [9]) is reported as “✓”. Also, the “affinity towards phosphatidylethanolamine (PE), in words” value in assay [5] (FIG. 7 / FIG. 8) was “some affinity”. Also, the “interaction with Sphingomyline (dot blot)” value in assay [6] (setting [9]) is reported as “✓”. Further, the “affinity towards sphingomyelin, in words” value in assay [6] (FIG. 7 / FIG. 8) is “some affinity”. Moreover, the “interaction with GM1 (dot blot)” value in assay [7] (setting [9]) is “✓”. In assay [7] (FIG. 7 / FIG. 8), the “affinity towards monosialotetrahexosylganglioside (GM1), in words” value is reported as “some affinity”. Besides, in assay [8] (setting [9]), the “interaction with Cholestrol (dot blot)” value is on record as “✓”. Moreover, the “affinity towards cholesterol, in words” value in assay [8] (FIG. 7 / FIG. 8) is listed as “some affinity”.
